Experiments:
Test in all cases: normalised viability (% of control), CellTiter-Blue; higher = more viable cells (about 100 = DMSO control)
Conditions in all cases: incubation time: 72 h
[1] = system: CAL-85-1
Method: (§1)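 DSRT, CellTiter-Blue viability, 72 h incubation. Signal is normalised to DMSO and benzethonium chloride controls. Value is the normalised response at dose 9.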

[2] = system: MDA-MB-453
Method: as §1

[3] = system: CAL-148
Method: as §1

[4] = system: CAL-51
Method: as §1

[5] = system: DU-4475
Method: as §1

[6] = system: HDQ-P1
Method: as §1

[7] = system: CAL-85-1; remark: listed apart in the source
How it was run: (§2)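 Compound dissolved in 5 µl medium was pre-loaded into 384-well plates, and breast cancer cell lines in 20 µl suspension were seeded on top and incubated 72 h. After adding 2.5 µl CellTiter-Blue reagent for 2 h at 37 °C, fluorescence was read at 560/590 nm. Plates were normalised to vehicle (100) and a positive kill control (0), with Z'-factor quality control. Each value is normalised viability at a single listed concentration from the series.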

[8] = system: MDA-MB-453; remark: listed apart in the source
How it was run: as §2

[9] = system: CAL-148; remark: listed apart in the source
How it was run: as §2

[10] = system: HCC1143
How it was run: as §2

[11] = system: MDA-MB-231
How it was run: as §2

[12] = system: CAL-120
How it was run: as §2

[13] = system: CAL-51; remark: listed apart in the source
How it was run: as §2

[14] = system: Hs578T
How it was run: as §2

[15] = system: DU-4475; remark: listed apart in the source
How it was run: as §2

[16] = system: HDQ-P1; remark: listed apart in the source
How it was run: as §2

[17] = system: BT-549
How it was run: as §2

[18] = system: BT-474
How it was run: as §2

[19] = system: MDA-MB-468
How it was run: as §2

[20] = system: HCC1937
How it was run: as §2

[21] = system: MFM-223
How it was run: as §2

[22] = system: SK-BR-3
How it was run: as §2

## Cn1cnc2c(F)c(Nc3ccc(Br)cc3Cl)c(C(=O)NOCCO)cc21 [Selumetinib] (10000 nM)
[1]
  normalised viability: 49.6%
[2]
  normalised viability: 75.8%
[3]
  normalised viability: 89.9%
[4]
  normalised viability: 80.3%
[5]
  normalised viability: 0.33%
[6]
  normalised viability: 65.7%

## COc1cc2c(cc1O)CC[C@@H]1[C@@H]2CC[C@]2(C)[C@@H](O)CC[C@@H]12 [2-methoxyestradiol] (10000 nM)
[1]
  normalised viability: 57.5%
[2]
  normalised viability: 36.6%
[3]
  normalised viability: 58.1%
[4]
  normalised viability: 20.6%
[5]
  normalised viability: 28.7%
[6]
  normalised viability: 47.3%

## O=NN(CCCl)C(=O)NCCCl [Carmustine] (10000 nM)
[1]
  normalised viability: 95.6%
[2]
  normalised viability: 115%
[3]
  normalised viability: 109%
[4]
  normalised viability: 98.2%
[5]
  normalised viability: 105%
[6]
  normalised viability: 114%

## C[C@]1(O)C[C@@H](c2nc(-c3ccc4ccc(-c5ccccc5)nc4c3)c3c(N)nccn32)C1 [OSI-906]
[7]; 3 nM
  normalised viability: 97.3%
[7]; 30 nM
  normalised viability: 85.7%
[7]; 100 nM
  normalised viability: 86.4%
[8]; 3 nM
  normalised viability: 97.9%
[8]; 30 nM
  normalised viability: 92.9%
[8]; 100 nM
  normalised viability: 78.6%
[9]; 3 nM
  normalised viability: 96.8%
[9]; 30 nM
  normalised viability: 89.8%
[9]; 100 nM
  normalised viability: 91.7%
[10]; 10 nM
  normalised viability: 99.9%
[10]; 1000 nM
  normalised viability: 85.5%
[10]; 10000 nM
  normalised viability: 75.2%
[11]; 10 nM
  normalised viability: 84.4%
[11]; 1000 nM
  normalised viability: 79.7%
[11]; 10000 nM
  normalised viability: 74.3%
[12]; 10 nM
  normalised viability: 96.6%
[12]; 1000 nM
  normalised viability: 84.2%
[12]; 10000 nM
  normalised viability: 56.2%
[13]; 3 nM
  normalised viability: 91.2%
[13]; 30 nM
  normalised viability: 97.5%
[13]; 100 nM
  normalised viability: 96.3%
[14]; 10 nM
  normalised viability: 103%
[14]; 1000 nM
  normalised viability: 95.2%
[14]; 10000 nM
  normalised viability: 71.4%
[15]; 3 nM
  normalised viability: 92.7%
[15]; 30 nM
  normalised viability: 104%
[15]; 100 nM
  normalised viability: 88.8%
[16]; 3 nM
  normalised viability: 79.4%
[16]; 30 nM
  normalised viability: 83.9%
[16]; 100 nM
  normalised viability: 85.4%
[17]; 10 nM
  normalised viability: 95.4%
[17]; 1000 nM
  normalised viability: 89.1%
[17]; 10000 nM
  normalised viability: 41.3%
[18]; 10 nM
  normalised viability: 102%
[18]; 1000 nM
  normalised viability: 91.5%
[18]; 10000 nM
  normalised viability: 78.4%
[19]; 10 nM
  normalised viability: 104%
[19]; 1000 nM
  normalised viability: 86.5%
[19]; 10000 nM
  normalised viability: 84.6%
[20]; 10 nM
  normalised viability: 92.8%
[20]; 1000 nM
  normalised viability: 79.7%
[20]; 10000 nM
  normalised viability: 48.4%
[21]; 10 nM
  normalised viability: 98.3%
[21]; 1000 nM
  normalised viability: 91.6%
[21]; 10000 nM
  normalised viability: 74.5%
[22]; 10 nM
  normalised viability: 88.7%
[22]; 1000 nM
  normalised viability: 79.7%
[22]; 10000 nM
  normalised viability: 54.3%
